{"source": "patent US11529317B2", "about": "“Method of preparing silica nanocapsules and silica nanocapsules” (Agency for Science, Technology and Research, priority 2017, dated 2022)", "assay": "Timed release of glycerol in aqueous media, standard enzymatic assay", "assay_type": "physicochemical", "conditions": "control", "procedure": "In this example, timed release studies were conducted on the glycerol loaded silica nanocapsules in accordance with various embodiments disclosed herein. Firstly, the synthesized silica nano lens particles were loaded with glycerol. Then, they were suspended in aqueous media and compared with controls.\nThe percentage of glycerol released from the lens-shaped particles over a period of 80 minutes is estimated using standard enzymatic assay and the results are shown in FIG. 12. […] On the other hand, encapsulated glycerol is released gradually from the lens-shaped particles over a period of approximately two hours."}
{"smiles": "OCC(O)CO", "note": "[unencapsulated glycerol, glycerol]", "values": [{"measurement": "dissolution of glycerol in water", "value": "instantly dissolves"}]}
